Values joined by “and” are separate entries in the source; they are usually repeats but may differ in a detail not shown here. Equal entries are not always repeated. Where two headings read alike, the source gives them in different places. Where no end group is shown, it is not given here.
What was measured:
[1] = target: T1, GPCR RC56.3.1 (adenine receptor) (Rattus norvegicus, UniProt Q7TN49); experiment: [3H]Adenine binding to RC56.1.3 transfected cells; details: tritiated adenine
T1 construct: expressed in transfected cells; host or cells: COS cells (membranes)
T1 sequence (Q7TN49 1-304): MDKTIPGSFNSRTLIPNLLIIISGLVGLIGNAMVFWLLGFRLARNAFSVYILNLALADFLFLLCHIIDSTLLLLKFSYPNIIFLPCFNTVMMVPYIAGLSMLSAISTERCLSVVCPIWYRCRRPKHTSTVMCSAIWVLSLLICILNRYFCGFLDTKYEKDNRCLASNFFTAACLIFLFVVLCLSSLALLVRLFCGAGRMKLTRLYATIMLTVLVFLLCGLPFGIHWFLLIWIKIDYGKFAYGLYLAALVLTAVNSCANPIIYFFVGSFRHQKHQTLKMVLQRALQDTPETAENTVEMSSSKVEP
Description: (§1) The membranes were prepared as total particulate fractions. The cell lines were cultured to 90% confluency on 145 mm petri dishes and treated with 5 mM sodium butyrate, 24 hours before collection. The culturing medium was removed and the cells were washed twice with ice-cold phosphate-buffered saline (PBS w/o Ca^2+ and Mg^2+), scraped from the plates in 50 mM Tris-HCl buffer, pH 7.4, and collected by centrifugation (10 minutes at 16,000 RPM at 4° C.). The cell pellet was re-suspended in hypotonic 5 mM Tris-HCl buffer, pH 7.4, and homogenized with an Ultra Turrax homogenizer. The homogenate was centrifuged at 18,000 RPM for 20 minutes at 4° C. The final pellet was re-suspended in 50 mM Tris-HCl buffer, pH 7.4 and stored in aliquots at −70° C. A protein determination was performed using the Bradford protein assay (Biorad) using bovine serum albumin (BSA) as standard.
(§2) [^3H]Adenine binding experiments were performed to characterize transiently transfected cell lines. Membranes were thawed on ice and diluted in 50 mM HEPES buffer, pH 7.4 supplemented with 10 mM MgCl2 and 1 mM EGTA. […] Samples were counted in a β-scintillation counter after at least 6 hours to permit the glass fiber filters to become uniformly translucent. […]
(§3) Specific binding was calculated as difference between counts in the presence and absence of 1 μM unlabeled adenine.

hDRR4 [2] = target: T2, hDRR4 (Homo sapiens, UniProt Q96LB2); experiment: [3H]Adenine binding to membranes of hDRR4 transfected cells; details: tritiated adenine
T2 sequence (Q96LB2 whole entry): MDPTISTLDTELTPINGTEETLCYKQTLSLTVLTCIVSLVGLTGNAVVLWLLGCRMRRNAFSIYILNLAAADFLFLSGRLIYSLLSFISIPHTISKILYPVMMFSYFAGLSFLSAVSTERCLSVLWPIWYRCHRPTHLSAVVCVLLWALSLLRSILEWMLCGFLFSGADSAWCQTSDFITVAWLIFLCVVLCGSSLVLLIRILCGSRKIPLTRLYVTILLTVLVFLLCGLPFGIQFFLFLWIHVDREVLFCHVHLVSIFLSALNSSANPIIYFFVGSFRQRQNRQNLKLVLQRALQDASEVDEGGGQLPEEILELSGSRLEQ
Description: as §1, §2, §3

hDRR4 [3] = target: T2, hDRR4; experiment: FLIPR calcium assay, HEK293 cells transiently co-transfected with hDRR4 and Gα16; assay type: cell-based; design: The full length reading frame was inserted into the mammalian expression vector pcDNA3; expressed in transfected cells; host or cells: HEK293
Description: (§4) The hDRR4 expression plasmid or the hDRR7 expression plasmid was transiently co-transfected with a Gα16-pcDNA3 contruct using the FuGENE 6 reagent (Roche Molecular Biochemicals, Mannheim, Germany) into HEK293 cells. The cells were loaded with Fluo-4 (Molecular Probes, Eugene, Oreg., U.S.A.) according to the recommendations of the supplier. Subsequently the cells were assayed in the FLIPR instrument (Molecular Devices, Sunnyvale, Calif., U.S.A.) for Ca^2+ transients.
(§5) Activation of orphan GPCR hDRR4 (SEQ ID NO:2) by the hDRR binding fragment of EPF (SEQ ID NO:8) at a test concentration of 150 nM was measured in Hek293 cells co-transfected with Gα16-pcDNA. Relative fluorescence units (RFU) were determined by loading the cells with Fluo-4 (Molecular Probes, Eugene, Oreg., U.S.A.).
as §4, with “construct” for “contruct”, “Fluo4” for “Fluo-4”
(§6) The purified peptides or dried tissue fractions were dissolved in calcium buffer and loaded onto regular multi-well 96 plates. Subsequently the cells were assayed in the FLIPR instrument (Molecular Devices, Sunnyvale, Calif., U.S.A.) for Ca^2+ transients. For the EPF-related peptides the following pEC50 values were determined;

hDRR7 receptor = target: T3, hDRR7 receptor (Homo sapiens, UniProt Q96LB1); experiment: FLIPR calcium assay, HEK293 cells transiently co-transfected with hDRR7 and Gα16; assay type: cell-based; details: for EC50: MrgX2 taken as hDRR7, FLIPR Ca2+ transients (FIG. 10), read-out: MrgX2 (pEC50) (converted)
T3 construct: expressed in transfected cells; host or cells: HEK293
T3 sequence (Q96LB1 1-330): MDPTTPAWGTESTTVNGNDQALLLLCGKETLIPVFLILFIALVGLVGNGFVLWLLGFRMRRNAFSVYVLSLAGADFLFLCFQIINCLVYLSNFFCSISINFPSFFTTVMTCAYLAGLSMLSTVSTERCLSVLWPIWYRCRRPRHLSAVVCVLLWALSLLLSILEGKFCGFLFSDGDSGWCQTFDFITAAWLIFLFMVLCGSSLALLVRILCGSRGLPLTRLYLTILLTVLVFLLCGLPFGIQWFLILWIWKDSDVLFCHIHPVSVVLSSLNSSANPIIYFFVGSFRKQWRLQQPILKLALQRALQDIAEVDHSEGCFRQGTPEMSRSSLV
Description: as §4
as §4, with “The” for “The hDRR4 expression plasmid or the”
(§7) Activation of orphan GPCR hDRR7 (SEQ ID NO:12) by the HDRR binding fragment of EPF (SEQ ID NO: 8) at a test concentration of 150 nM after transient co-transfection with Gα16-pcDNA into HEK293 cells. Relative fluorescence units (RFU) were determined by loading the cells with Fluo-4 (Molecular Probes, Eugene, Oreg., U.S.A.).
as §4, with “construct” for “contruct”, “Fluo4” for “Fluo-4”
as §6

[4] = test system: Hek 293 cells only transfected with the Gα16-pcDNA expression vector; experiment: FLIPR calcium assay, control cells without receptor; assay type: cell-based, human; details: test concentration 150 nM, no hDRR receptor (FIG. 3, FIG. 4)
Description: as §4, §5, §7

hDRR4 [5] = target: T2, hDRR4; experiment: Stimulation of hDRR4 with angiotensin II and III (re-test of WO 99/32519); details: claimed in WO 99/32519; re-examined by present inventors
[6] = target: T4, human Dorsal Root Receptor 7 (hDRR7) (human, UniProt Q96LB1 1-330); experiment: cell-based or functional assay
T4 sequence: T3 sequence (Q96LB1 1-330)

[7] = target: T5, human Dorsal Root Receptor 4 (hDRR4) (human, UniProt Q96LB2 1-322); experiment: cell-based or functional assay
T5 sequence (Q96LB2 whole entry): as the sequence (Q96LB2 whole entry) above

[8] = target: T4, human Dorsal Root Receptor 7 (hDRR7); experiment: cell-based or functional assay; remark: listed apart in the source
[9] = target: T5, human Dorsal Root Receptor 4 (hDRR4); experiment: cell-based or functional assay; remark: listed apart in the source
[10] = MrgX1 = hDRR4, FLIPR Ca2+ transients (FIG. 9), read-out: MrgX1 (pEC50) (converted)

## Nc1ncnc2nc[nH]c12 [adenine]
[1]
  Specific adenine binding to RC56.1.3 transfected cells: clear specific adenine binding
hDRR4 [2]
  Specific adenine binding to hDRR4: no specific adenine binding
hDRR4 [3]; HEK293 with and without co-transfection of chimeric G proteins or Gα16
  Specific response on hDRR4 in FLIPR-based cellular assay: no specific response

## AFRKFLPLFDRVLVERSA [SEQ ID NO:8, AFRKFLPLFDRVLVERSA]
hDRR7 receptor; test concentration 150 nM, Fluo-4 (FIG. 4)
  Activation of hDRR7 (relative fluorescence units): Activation
[4]
  Response of cells transfected with Gα16 only: did not response
hDRR4 [3]; FLIPR calcium assay, different test concentrations (FIG. 7), read-out: EC50-value on hDRR4 receptor
  EC50: 10.6 to 12 nM and 12 nM
hDRR4 [3]; test concentration 150 nM, Fluo-4 (FIG. 3)
  Activation of hDRR4 (relative fluorescence units): Activation

## LGQAFRKFLPLFDRVL [EPF 1-16, LGQAFRKFLPLFDRVL]
hDRR7 receptor
  EC50: 873 nM
hDRR4 [3]; [10]
  EC50: 15.1 nM

## LGQAFRKFLPLFDRVLVE [EPF 1-18, LGQAFRKFLPLFDRVLVE]
hDRR7 receptor
  EC50: 820 nM
hDRR4 [3]; [10]
  EC50: 99.3 nM

## angiotensin II (DRVYIHPF; Angiotensin-2; UniProt P01019 25-32, looked up)
hDRR4 [5]
  Stimulation of hDRR4 by angiotensin (angiotensin receptor characterization): could not be confirmed

## angiotensin III
hDRR4 [5]
  Stimulation of hDRR4 by angiotensin (angiotensin receptor characterization): could not be confirmed

B1: EPF 1-16 (LGQAFRKFLPLFDRVL, SEQ ID NO: 21) (peptide)
peptide: LGQAFRKFLPLFDRVL
[6]
  pEC50, FLIPR Ca2+ transients: 6.06 pEC50
[7]
  pEC50, FLIPR Ca2+ transients: 7.82 pEC50

B2: EPF 1-18 (LGQAFRKFLPLFDRVLVE, SEQ ID NO: 19) (peptide)
peptide: LGQAFRKFLPLFDRVLVE
[6]
  pEC50, FLIPR Ca2+ transients: 6.09 pEC50
[7]
  pEC50, FLIPR Ca2+ transients: 7 pEC50

B3: hDRR binding fragment of EPF (SEQ ID NO:8) (peptide)
peptide: AFRKFLPLFDRVLVERSA
[8]
  EC50-value, FLIPR calcium assay: 354 nM
[9]
  EC50-value: 10.6 nM and 6 to 12 nM
  EC50-value, FLIPR calcium assay: 12 nM

From patent publication US20040235722A1, “Epf receptor assays, compounds and therapeutic compositions” (priority 2001, published 2004)
